This test has as its system BALB/c mice. Description: K/BxN serum-transferred arthritis (KSTA) in BALB/c mice. The format is in vivo, mouse. As for the experimental part: Arthritogenic serum was collected from 8-to-15-week-old K/BxN mice. Eight-week-old male BALB/c mice were injected intraperitoneally (ip) with 100 μl of K/BxN serum to induce arthritis. The mice were treated orally twice daily with 42 or 84 mpk of SKI-O-703 from that day for 9 days. In some experiments, mice were injected ip every 2 days with 400 μg/mouse of the TNF blocker, etanercept (Amgen). Ankle thickness was measured, and arthritic index was determined daily, as described previously. On day 9 post-induction, spleens and draining (inguinal and axillary) lymph nodes (LNs) were removed post mortem and assayed by histopathological and immunologic methods.
Hind paws were removed from KSTA mice, fixed, and decalcified in 5.5% EDTA in phosphate-buffered formalin. The paws were embedded in paraffin, sectioned, and stained with hematoxylin and eosin (H&E). Arthritic changes in the ankle and foot were scored (0–4 scale) and expressed as a histopathologic index, as described previously. Safranine O-stained sections were scored (0–4 scale) and expressed as the score for cartilage erosion, as described.
Single-cell suspensions of spleen and LN cells were prepared as previously described. Joint tissues from hind paws of KSTA mice were dissected free of soft tissue and bones, digested with 100 μg/ml Liberase (Roche) for 45 min at 37 °C, and filtered through a 70-μm-pore cell strainer (SPL Life Sciences) to prepare single cell suspensions of synovial infiltrates. The single cell suspensions were stained with an appropriate combination of mAbs and analyzed by FACS. The mAbs used were: CD138-PE, B220-PerCP or -APC-cy7, FAS-PE, CD19-PerCP or -APC, CD21-FITC or -APC, CD43-APC, CD23-PE-cy7, CD8a-PE, CD25-APC-cy7, CXCR5-biotin, GL7-FITC, CD45.2-FITC, CD27-FITC, Ki-67-FITC, Gr-1-FITC, CD4-FITC or -APC-cy7, phospho-Syk-PE, CD11b-PE or -PerCP, PD-1-APC, CD44-APC-cy7, and F4/80-PerCP mAbs (all from BD Biosciences, eBioscience or Biolegend). Streptavidin-PerCP was purchased from BD Biosciences.

Experimental findings from paper PMC9993459, “A novel selective spleen tyrosine kinase inhibitor SKI-O-703 (cevidoplenib) ameliorates lupus nephritis and serum-induced arthritis in murine models” (Clinical and Experimental Immunology, 2022) are described below.

As to `CS(=O)(=O)O.CS(=O)(=O)O.Cc1nn(-c2ccnc(Nc3ccc4c(c3)c(C(=O)C3CC3)cn4C)n2)cc1CN1C[C@H](O)CO1` [SKI-O-703, (S)-cyclopropyl(5-((4-(4-((4-hydroxyisoxazolidin-2-yl)methyl)-3-methyl-1H-pyrazol-1-yl)pyrimidin-2-yl)amino)-1-methyl-1H-indol-3-yl)methanone dimesylate], the “Ankle thickness and arthritic index” value (42 mpk (lower dose) oral twice daily for 9 days) is “the reduction was less pronounced”; the “Ankle thickness and arthritic index” value (84 mpk oral twice daily for 9 days) is “dramatically reduced to the basal level”. For the same compound, under “42 mpk SKI-O-703 combined with TNF blocker etanercept, synergistic”, the “Progression of KSTA (ankle thickness, arthritic index, inflammatory cell infiltration)” value is listed as “significantly suppressed disease progression”. In addition, for the setting “84 mpk, mainly neutrophils and macrophages”, the “Numbers of whole immune cells (CD45+) infiltrated into synovial tissue” value was “significantly reduced”. For the same compound, the “Histopathologic index and cartilage erosion score” value (high dose (84 mpk), day 9) was “significantly reduced”. Further, the “Joint-draining LN total cells, B cells and GC B cells” value (high dose, day 9, lymphadenopathy disappeared) was “significantly reduced numbers”. In addition, the “Progression of KSTA” value (suboptimal dose 42 mpk, alone) is on record as “did not significantly inhibit progression of KSTA”.
